In article PMC3447335, “Evaluation of Pseudopteroxazole and Pseudopterosin Derivatives against Mycobacterium tuberculosis and Other Pathogens” (Marine Drugs, 2012):
Converted amounts (≈) assume the structure as drawn. Where two headings read alike, the source gives them in different places.

Assays:
M. tuberculosis H37Rv [1] = tested on: M. tuberculosis H37Rv; set-up: method as in PMID 9145860; conditions: comparison values; cited from earlier work
[2] = tested on: M. tuberculosis H37Rv (ATCC 27294); experiment: Microplate Alamar blue assay (MABA); format: cell-based, Mycobacterium tuberculosis; conditions: for SI (Selectivity Index): (Vero Cell IC50)/(M. tuberculosis MIC); for MIC: Mycobacterium tuberculosis
[3] = tested on: M. tuberculosis H37Rv (ATCC 27294); experiment: microbe, parasite or virus in culture; format: cell-based, Mycobacterium tuberculosis; conditions: Mycobacterium tuberculosis; for inhibition at 64 µg/mL: % inhibition at 64 μg/mL, read-out: LORA % inh; for MIC: read-out: LORA MIC
Vero cells = experiment: cells; conditions: Chlorocebus sabaeus; for cytotoxicity at 128 µg/mL: read-out: Vero cell (% inh); for IC50: read-out: Vero cell IC50
NCI-60 cell line = conditions: cited from earlier work
MRSA = experiment: Microbroth dilution antibiotic susceptibility assay; format: cell-based; conditions: Staphylococcus aureus, read-out: IC50 MRSA
VRE = experiment: as above; format: cell-based, Enterococcus faecium; conditions: Enterococcus, read-out: IC50 VRE
[4] = tested on: M. smegmatis (ATCC 12051); experiment: as above; format: cell-based; conditions: Mycolicibacterium smegmatis
[5] = tested on: M. diernhoferi (ATCC 19340); experiment: as above; format: cell-based; conditions: Mycolicibacterium diernhoferi
M. tuberculosis H37Rv [6] = tested on: M. tuberculosis H37Rv; set-up: method as in PMID 12828474; conditions: natural 2 isolated from P. elisabethae, at 12.5 μg/mL (40 μM); cited from earlier work
[7] = M. tuberculosis H37Rv (ATCC 27294), replicating, read-out: MABA MIC
[8] = non-replicating persistent model
[9] = ATCC12051, microbroth dilution, read-out: MIC M. smegmatis
[10] = ATCC19340, microbroth dilution, read-out: MIC M. diernhoferi

Molecule	MIC of first and second line TB treatments (M. tuberculosis H37Rv [1])	SI (Selectivity Index) [2]	MIC [2, 7]	inhibition at 64 µg/mL [3]	MIC [3, 8]	cytotoxicity at 128 µg/mL (Vero cells)	IC50 (Vero cells)	MIC [4, 9]	MIC [5, 10]	other results
N[C@@H]1CON=C1O [cycloserine]	122 to 490 µM									
CC(C)=C[C@@H]1C[C@H](C)[C@H]2CC[C@H](C)c3c2c1c(C)c1ncoc31 [Compound 1, pseudopteroxazole]		>8.6	15 µg/mL	99.7%	50 µg/mL	0%	> 128 µg/mL			MIC ([2]; wild-type M. tuberculosis H37Rv, Table 2 experiment, read-out: MABA MIC H37Rv): 7 µg/mL; MIC ([3]; value given in μM): 162 µM; cytotoxicity against the NCI-60 cell line assay (NCI-60 cell line): no significant cytotoxicity
CC[C@@H](CO)NCCN[C@@H](CC)CO [ethambutol]	4.6 to 9.2 µM									
NC[C@H]1O[C@H](O[C@H]2[C@H](O)[C@@H](O[C@H]3O[C@H](CO)[C@@H](O)[C@H](N)[C@H]3O)[C@H](N)C[C@@H]2N)[C@H](O)[C@@H](O)[C@@H]1O [kanamycin]	2.5 to 10.3 µM									
CC(C)=CC1CC(C)C2CCC(C)c3c2c1c(C)c1nc(Cc2cnc[nH]2)oc31 (centres unmarked) [7a/7b]		>9.7	13 µg/mL	92.5%	12 µg/mL	4%	> 128 µg/mL	4 µg/mL (≈ 10.3 µM)	2 µg/mL (≈ 5.13 µM)	MIC ([2]; MABA, value given in μM, read-out: MIC against M. tuberculosis H37Rv): 34 µM; MIC ([3]; value given in μM): 31 µM; IC50 (MRSA): 3 µg/mL (≈ 7.7 µM); IC50 (VRE): 7.5 µg/mL (≈ 19.3 µM)
CCCCCc1nc2c(C)c3c4c(c2o1)[C@@H](C)CC[C@@H]4[C@@H](C)C[C@H]3C=C(C)C [Compound 2, homopseudopteroxazole]			> 128 µg/mL	22.6%		0%	> 128 µg/mL			activity against M. tuberculosis H37Rv ([2]; semi-synthetic material, MABA): not active; inhibition against M. tuberculosis H37Rv (M. tuberculosis H37Rv [6]): 80%
COc1c(C)c2c3c(c1O)[C@@H](C)CC[C@@H]3[C@@H](C)C[C@H]2C=C(C)C [Compound 9]		>4.3	30 µg/mL	99.7%	52 µg/mL	26%	> 128 µg/mL	4 µg/mL (≈ 12.7 µM)	4 µg/mL (≈ 12.7 µM)	IC50 (MRSA; microbroth dilution): 9 µg/mL (≈ 28.6 µM); IC50 (VRE; microbroth dilution): 12 µg/mL (≈ 38.2 µM)
COc1c(C)c2c3c(c1OC(=O)N(C)C)[C@@H](C)CC[C@@H]3[C@@H](C)C[C@H]2C=C(C)C [Compound 12, 9-Dimethylcarbamoyloxy-10-methoxy-pseudopterosin G–J Aglycone]			> 128 µg/mL	80%		0%	> 128 µg/mL			IC50 (MRSA): > 128 µg/mL; IC50 (VRE): 70 µg/mL (≈ 182 µM); MIC ([4]; ATCC12051, read-out: MIC M. smegmatis): 64 µg/mL (≈ 166 µM); MIC ([5]; ATCC19340, read-out: MIC M. diernhoferi): > 64 µg/mL
capreomycin	0.94 to 3.7 µM									
CC(C)=C[C@@H]1C[C@H](C)[C@H]2CC[C@H](C)c3c(O)c(O)c(C)c1c32 [Compound 4, pseudopterosin G–J aglycone]			> 128 µg/mL	53.1%			50 µg/mL (≈ 166 µM)	8 µg/mL (≈ 26.6 µM)	8 µg/mL (≈ 26.6 µM)	IC50 (MRSA; microbroth dilution): 88 µg/mL (≈ 293 µM); IC50 (VRE; microbroth dilution): > 128 µg/mL
